`COC(=O)Nc1cn2ccc(Sc3ccccc3)cc2n1` showed a melting point of 221 to 223 °C. Work on `CN(C)c1ccc2nc(N)c(C#N)c(NCc3ccco3)c2c1` yielded a melting point of 235 °C. Compound `O=C(NC1CCOCC1)c1cccc(-c2cccc3oc(Cc4cccc(C(F)(F)F)c4)cc23)c1` has a melting point of 107 to 108 °C. With `Cc1cc(Nc2ccnc(Nc3ccc(S(=O)(=O)N(C)C4CCC(F)(F)CC4)cc3)n2)ccc1F` the melting point was 164 to 165 °C. For `CCOc1cc2c(cc1O)C(=NO)CC1C2CCC2(C)C(OC(C)=O)CCC12` (stereo not drawn), the melting point was 226 to 227 °C. Work on `CN1C(=O)CCCc2ccc([N+](=O)[O-])cc21` yielded a melting point of 151 to 152 °C. With `Nc1ccc(-c2noc(-c3cnn4c(C(F)F)cc(-c5ccc(Cl)cc5)nc34)n2)cn1` the melting point was 254 °C. `CC(C)(C)OC(=O)NC1CCCCCC=CC2CC2(C(=O)NS(=O)(=O)C2CC2)NC(=O)C2CC(OC(=O)c3cccc(C#N)c3)CN2C1=O` (stereo not drawn) showed a melting point of 151 to 153 °C. `CC(Oc1ccc(C#N)cc1)c1ccnc2ncnn12` (stereo not drawn) gave a melting point of 163 to 164 °C. For `CC(O)C(CCCc1ccccc1)n1ncc2c(=O)[nH]c(Cc3ccc(Cl)cc3)nc21` (stereo not drawn), the melting point was 101 °C. Work on `CNCC1CN(c2c(F)cc3c(=O)c(C(=O)O)cn(-c4ccc(F)cc4F)c3c2F)CCO1` (stereo not drawn) yielded a melting point of 224 to 227 °C. In the case of `Fc1cc(CCl)c(F)cc1CCl`, the melting point is reported as 62.5 to 64.5 °C. With `C#CCN(Cc1cc2c(=O)n(C)c(CN(CC)CC)nc2cc1Cl)c1ccc(C(=O)OC(C)(C)C)cc1` the melting point was 112 to 113 °C. In the case of `C=C(C)C(=O)OCCc1ccc(N(C)C)cc1`, the melting point is reported as 42 to 43 °C. Compound `O=C(NCc1ccccn1)c1ccc(C2=NOC(c3cc(Cl)cc(Cl)c3)(C(F)(F)F)C2)cc1C(F)(F)F` (stereo not drawn) has a melting point of 69 to 70 °C. `Cc1cc2c(-c3ccccc3F)nc(=O)[nH]c2s1` gave a melting point of 282 to 284 °C. `C=CC(C)=CC=CC(C)=CC(=O)OCC` showed a melting point of 52 to 53 °C. `O=S1(=O)N(CCCN2CCN(c3ccc(O)cc3)CC2)c2cccc3c2N1CCC3` gave a melting point of 182 °C. In the case of `CC1(CCCN)NC(=O)NC1=O` (stereo not drawn), the melting point is reported as 183 to 185 °C. Work on `[N-]=[N+]=NCc1cccc(C(=O)c2ccc(Cl)cc2)c1` yielded a melting point of 43 to 45 °C. Compound `COc1ccc(S(=O)(=O)Nc2cc(F)cc3c2Nc2ccc(O)cc2CO3)cc1` has a melting point of 201 to 210 °C. Compound `Nc1nc2ccccc2c2c1ncn2CCCCNC(=O)c1ccncc1` has a melting point of 213 to 214 °C. Work on `Nc1ncccc1OCc1ccccc1Br` yielded a melting point of 99 to 100 °C. `O=[N+]([O-])c1ccccc1OCc1ccccc1` showed a melting point of under 50 °C. Work on `CCc1noc(NS(=O)(=O)c2ccccc2)c1Br` yielded a melting point of 90 to 93 °C. `CCN1CC(=O)N(c2c(C(C)C)cccc2C(C)C)C1=S` showed a melting point of 159 to 161 °C. In the case of `COC(=O)c1nscc1S(=O)(=O)Cl`, the melting point is reported as 42 to 46 °C. In the case of `N#Cc1cccc(-c2csc(N=C(N)N)n2)n1`, the melting point is reported as over 300 °C. Work on `COC(=O)C(C)(C)c1ccc(C(=O)Nc2cn3c4c(ccc3n2)OCC4)cc1` yielded a melting point of 235 to 237 °C. `CC(=Cc1ccsc1)N(O)C(N)=O` gave a melting point of 165 to 167 °C. Work on `O=C(Cc1ccccc1)Nc1ccc2oc3c(c2c1)CCCC3` yielded a melting point of 180 to 181 °C. `CC(C)(C)OC(=O)N1CCC(c2ccc3nc(-c4ccc(C(F)(F)F)cc4)oc3c2)CC1` showed a melting point of 174 to 179 °C. `C[C@H](Nc1nc(Cl)nc(Cl)n1)c1ccccc1` gave a melting point of 146 to 147 °C. `Cc1nccc(-c2ccccc2)c1/C=C/C=O` showed a melting point of 98 to 99 °C. For `Cc1ccnc(Nc2nc(-c3ccc(-c4ccccn4)s3)cs2)c1`, the melting point was 185 to 187 °C. With `O=C(Cc1cccc2ccccc12)Nc1cc(C2CC(NC(=O)C3CC3c3ccccc3)C2)[nH]n1` (stereo not drawn) the melting point was 140 °C. In the case of `C(#CCN(c1ccccc1)c1ccccc1)CN(c1ccccc1)c1ccccc1`, the melting point is reported as 84 to 86 °C. For `COc1ccnc(-n2cnc3ccccc32)n1`, the melting point was 114 to 116 °C. In the case of `CCC(=O)C(Cc1c(F)cccc1F)C(=O)CC`, the melting point is reported as 55 to 56 °C. For `CCOC(=O)c1ccc(C(C(N)=O)C(Cc2ccccc2)c2ccccc2N2CCCCC2)cc1` (stereo not drawn), the melting point was 161 to 162 °C. `COc1cccc2oc(C(=O)c3cccc(C(F)(F)F)c3)c(C)c12` gave a melting point of 91 to 92 °C. In the case of `N#Cc1cnn2c(C(F)(F)F)cc(-c3ccc(F)cc3)nc12`, the melting point is reported as 198 °C. Work on `Oc1ccc2sc3ccccc3c2c1` yielded a melting point of 152 to 155 °C. In the case of `O=CNCc1ccc2[nH]cc(CCN3C(=O)c4ccccc4C3=O)c2c1`, the melting point is reported as 45 °C. Work on `Cc1ccc(COn2c(C)c(C(C)C(=O)O)c3cc4c(cc32)OCO4)cc1` (stereo not drawn) yielded a melting point of 172 to 175 °C. With `CCCCN(CCCC)c1cc(OC)c(C=Cc2cccs2)c(OC)c1` the melting point was 90 °C. `CN1C(=O)C(C(=O)Nc2ccc(Oc3nc(C(F)(F)F)nn3C)cc2)C(=O)N(C)C1=O` showed a melting point of 202 to 204 °C. For `CC(Cl)(Cl)C(Cl)(Cl)c1cccc([N+](=O)[O-])c1`, the melting point was 75.5 to 77 °C. In the case of `CC(Nc1nc(NNC(=O)CCCl)nc(Cl)c1-c1c(F)cccc1Cl)C(F)(F)F` (stereo not drawn), the melting point is reported as 152 to 156 °C. Work on `Cc1c(-c2ccc3c(c2)NC(=O)CO3)nc2ccccn12` yielded a melting point of 280 to 282 °C. Compound `O=C1NCN(c2ccc(F)cc2)C12CCN(C1CCC(c3ccc(F)cc3)(c3ccc(F)cc3)CC1)CC2` has a melting point of 237 to 240 °C. Compound `Nc1cc([N+](=O)[O-])ccc1CO` has a melting point of 126 to 128 °C. Work on `O=C(Nc1ccc2c(c1)CSCC2)OCc1ccccc1` yielded a melting point of 109 to 111 °C. Compound `Cc1oc(-c2ccccc2)nc1COc1ccc(COc2nn(Cc3ccccc3)cc2CCC(=O)O)cn1` has a melting point of 130 to 131 °C. `CCOC(=O)c1sc(N2C[C@@H](Cc3ccccc3)NC2=O)nc1C` gave a melting point of 102 to 103 °C. Work on `O=C(O)c1cc(=O)c2c(O)cccc2[nH]1` yielded a melting point of 298 to 301 °C. `Cc1ccc(N(C)S(=O)(=O)c2cccnc2Cl)c2[nH]c(C3=NCC(CN4CCOCC4)S3)cc12` (stereo not drawn) gave a melting point of 151 to 153 °C. `O=Cc1ccc2c(c1)C1(c3ccccc3-2)c2ccccc2-c2ccc(CO)cc21` (stereo not drawn) gave a melting point of 262 to 263 °C. For `CCOC(=O)[C@H](C[C@H](Cc1ccc(OC)c(OCCCOC)c1)C(C)C)NC(=O)OC(C)(C)C`, the melting point was 59 to 60 °C. `O=C1C(Cl)=CC(=NS(=O)(=O)c2cccs2)c2ccccc21` showed a melting point of 167 to 169 °C. For `CN(C)CCc1nc2cccnc2[nH]1`, the melting point was 109 to 112 °C. In the case of `COc1cc2c(cc1OC)C(c1ccnc(-n3nc(-c4cccnc4)c4ccccc4c3=O)c1)=N[C@H](CO)C2`, the melting point is reported as 235 to 238 °C. With `CC(C)Cn1cccc1C(=O)C(C#N)C(=O)Nc1ccccc1` (stereo not drawn) the melting point was 134 to 136 °C. In the case of `COc1ccc(C(C)(C)C)c(O)c1-c1nc2cc(S(=O)(=O)C(F)(F)F)ccc2[nH]1`, the melting point is reported as 55 to 56 °C. `CC(=O)N(CCN1CCOCC1)C(C)C1(c2ccc(Cl)c(Cl)c2)CCC1` (stereo not drawn) showed a melting point of 121 to 122 °C. Work on `CCOCc1nc2c(N)nc3cc(-n4ccnc4)cnc3c2n1CC(C)C` yielded a melting point of 175 to 176 °C. With `c1ccc(CSc2nnc(-c3ccc4c(c3)CCO4)o2)cc1` the melting point was 148 to 149 °C. Work on `O=C(NO)c1ccc(CNC(=O)c2[nH]c(-c3ccccc3)cc2-c2ccc([N+](=O)[O-])cc2)cc1` yielded a melting point of 179 to 180 °C. In the case of `CCC1C(C)=NN=C(c2ccc(OC)c(OC)c2)c2cc(OC)c(OC(C)C)cc21` (stereo not drawn), the melting point is reported as 109 to 111 °C. `Brc1ccccc1Cc1nc(-c2ccncc2)cs1` gave a melting point of 114 to 116 °C. `Nc1cc(C(=O)c2ccccc2)ccc1N1CCOCC1` showed a melting point of 138 °C. `O=C1CCC(C(=O)OC2c3ccccc3C(=O)N2c2ccc3ccc(Cl)nc3n2)CC1` (stereo not drawn) showed a melting point of 203 °C. Compound `Nc1nc(O)c2c(n1)NCC(CCc1c[nH]c(C(=O)O)c1)C2` (stereo not drawn) has a melting point of over 260 °C. In the case of `CC(=N)Nc1cccc([N+](=O)[O-])c1`, the melting point is reported as 226 to 228 °C. For `NC(=O)c1c(C(=O)O)cnn1-c1cccc(Cl)c1Cl`, the melting point was 228 to 230 °C. `N#Cc1cc(N)c(Cl)c(N)c1` showed a melting point of 172 °C. In the case of `CCC1CCC2(O)C3CC=C4CC(O)CCC4(C)C3CC(O)C12C` (stereo not drawn), the melting point is reported as 228 to 235 °C. Work on `O=c1oc2ccccc2c(O)c1CCCOc1ccccc1` yielded a melting point of 125 to 126 °C. Work on `COc1ccc(S(=O)(=O)c2ccc3cc(Br)ccc3c2)cc1` yielded a melting point of 180 to 181 °C. In the case of `O=S(=O)(NCCCCCCCCCCOc1ccc(-n2ccnc2)cc1)c1ccc2ccccc2c1`, the melting point is reported as 112 to 115 °C. Compound `CN(CCN1C(=O)c2ccccc2C1=O)C(c1ccccc1)c1ccccc1` has a melting point of 130 to 131 °C. Work on `Cc1ccc(S(C)(=O)=O)c(C)c1Cl` yielded a melting point of 116 to 119 °C. With `Cc1cc(C#N)cc(C)c1Oc1nc(Nc2ccc(C#N)cc2)nc(N)c1Br` the melting point was 271 °C. `NC(=O)COC(=O)c1ccccc1Cl` gave a melting point of 117 to 120 °C. With `CCOC(=O)c1sc(Oc2ccc(NC(=O)OC(C)(C)C)cc2)c2c1CCc1cnn(C)c1-2` the melting point was 186 to 187 °C. In the case of `CC[C@H](Cc1sccc1Cl)Nc1ncnc2c1ncn2[C@@H]1C[C@H](CF)[C@@H](O)[C@H]1O`, the melting point is reported as 143 °C. `c1ccc(COc2cccn3ccnc23)cc1` gave a melting point of 110 °C. With `Nc1ccc(C23CC(C2)C(=O)NC3=O)cc1` the melting point was 265 °C. For `CCOC(=O)Cc1c(C(=O)O)c(C)cn1C`, the melting point was 182 to 185 °C. In the case of `CCOc1ccc(S(=O)(=O)Nc2cccnc2Nc2ccccc2)cc1`, the melting point is reported as 161 to 162 °C. Compound `COc1cc2c(cc1-n1cccc1)C(Nc1ccc(F)c(Cl)c1)=C(C#N)CN2` has a melting point of 192 to 194 °C. Compound `CC(C#N)(c1ccc(F)cc1)c1ccc([N+](=O)[O-])cc1Cl` (stereo not drawn) has a melting point of 133 °C. In the case of `CCCN(CCC)Cc1nc(-c2ncn3c2[C@@H]2CCCN2C(=O)c2cc(F)ccc2-3)no1`, the melting point is reported as 222 to 225 °C. `N#Cc1ccc(NC(=O)c2cccc(OCc3cc(F)cc(F)c3)c2)cc1` gave a melting point of 185 to 187 °C. For `CCOC(=O)c1[nH]c2cc(Cl)cc(Cl)c2c1C(=O)OCC`, the melting point was 167 to 170 °C. Work on `CCC(C)(CC)N=C(NC#N)Nc1cc(Cl)cc(Cl)c1` yielded a melting point of 148 to 150 °C. With `CN(C)C1(c2ccc(C(C)(C)C)cc2)CCC(=O)CC1` the melting point was 82.5 to 87 °C. Compound `COc1ccc(CC2NC(=O)NC2=O)cc1OC1CCCC1` (stereo not drawn) has a melting point of 151 to 153 °C. Work on `CSc1ncc(-c2ccccc2)c(Cl)n1` yielded a melting point of 99 °C. `COC(=O)C1CC1c1ccc(O)cc1` (stereo not drawn) gave a melting point of 69 to 71 °C. Compound `CC(CO)NC(=O)COc1ccc(CCNS(=O)(=O)c2ccccc2)cc1` (stereo not drawn) has a melting point of 90 to 91 °C. In the case of `CC(=O)n1cc(C#N)c(-c2cccc(Cl)c2F)c1`, the melting point is reported as 141 to 142 °C. Work on `Cc1c(C)c2c(c(C)c1N)CC(C)(CN1CCC(c3ccncc3)CC1)O2` (stereo not drawn) yielded a melting point of 126 to 128 °C.

— a melting point compilation (Tetko et al.; mined from patent text by program, amines drawn as free bases though some values may be those of a salt)
